Laboratory results as given in paper PMC11212140, “Molecular Bidents with Two Electrophilic Warheads as a New Pharmacological Modality” (ACS Central Science, 2024).
Where two headings read alike, the source gives them in different places.

Experiments:
IKKb = system: T1, IKKb; experiment: KiNativ profiling in H3255 cells; assay type: cell-based, human; conditions: 2.5 µM
T1 construct: purchased ActivX Biosciences (KiNativ)

JAK1 domain1 = system: T2, JAK1 domain1; experiment: KiNativ profiling in H3255 cells; assay type: cell-based, human; conditions: 2.5 µM; Activation Loop; QLASALSYLEDKDLVHGNVCTKNLLLAR
T2 construct: JAK1 domain1; purchased ActivX Biosciences (KiNativ)

ILK = system: T3, ILK; experiment: KiNativ profiling in H3255 cells; assay type: cell-based, human; conditions: 2.5 µM
T3 construct: purchased ActivX Biosciences (KiNativ)

[1] = system: EGFR^L858R/C797S Ba/F3 cells; experiment: Antiproliferation assay (CellTiter-Glo); assay type: cell-based
Text: (1 picture or pasted object on this page, not shown here)
protease and phosphatase inhibitors.
Protein expression and purification

H3255 cells = experiment: Cell viability assay (CellTiter-Glo); assay type: cell-based; conditions: Homo sapiens, NCI-H3255, 72 h of treatment
Method: (A) Dose–response curves for ZNL-0056 and osimertinib in H3255 cells following 72 h of treatment. Cell viability was assessed with CellTiter-Glo. Data are presented as the mean ± SEM (n = 4). Representative data from three independent experiments are shown. (B) Immunoblot assessment of the effect of ZNL-0056 on EGFR signaling pathway in H3255 cells after 6 h treatment. Representative blots from two independent experiments are shown. […] TEXT PRINTED IN THE PICTURE: (A) ZNL-0056: H3255: IC50 (nM): 471.3 | (A) Osimertinib: H3255: IC50 (nM): 27.76 […]
For infection of Ba/F3 cells, 2.5 mL of viral supernatant and 8 μg/mL polybrene was added to 2.5 million cells per well in six-well plates. […]
Cells were lysed in RIPA buffer (150 mM NaCl, 1.0% IGEPAL® CA-630, 0.5% sodium deoxycholate, 0.1% SDS, 50 mM Tris, pH 8.0) (Sigma, Cat# R0278) with protease inhibitor and phosphatase inhibitor (Roche). The protein concentrations were measured by BCA analysis (Thermo Fisher Scientific, Cat # PI23225). […]
or IRDye 680RD goat anti-Mouse IgG (LICOR Biosciences , Cat # 926-68070) secondary antibodies at room temperature for 1 hour. The membranes were detected on Odyssey CLx system. […]
treatment. Cell viability was determined by using CellTiter-Glo (Promega #G7571) according to the manufacturer’s instructions, measuring luminescence using an Envision plate-reader (PerkinElmer Inc.). […]

TAO1, TAO3 = experiment: KiNativ profiling in H3255 cells; assay type: cell-based, human; conditions: 2.5 µM; Lys2; DIKAGNILLTEPGQVK
Method: (§1) Cellular target engagement assays […]
(§2) H3255 cells were plated with 6.5x10^6 per condition in fresh media in 15 cm plates and treated the 80% confluency for 2 hours with DMSO or 2.5 μM of ZNL-0056. To harvest cells, plates were washed 3 times with cold PBS, then collected by scraping into 4 mL of cold PBS containing protease and phosphatase inhibitors. Cells were pelleted by centrifugation at 1350 g at 4 ℃ for 5 minutes and immediately frozen in liquid nitrogen. The frozen samples were sent to ActivX Biosciences (La Jolla, CA) for the remainder of the KiNativ profiling experiment4. […]

ATR = system: T4, ATR; experiment: KiNativ profiling in H3255 cells; assay type: cell-based, human; conditions: 2.5 µM; ATP; FYIMMCKPK
T4 construct: purchased ActivX Biosciences (KiNativ)
Method: as §1, §2

CDK10 = system: T5, CDK10; experiment: KiNativ profiling in H3255 cells; assay type: cell-based, human; conditions: 2.5 µM; Lys2; DLKVSNLLMTDK
T5 construct: purchased ActivX Biosciences (KiNativ)
Method: as §1, §2

MARK3 = system: T6, MARK3; experiment: KiNativ profiling in H3255 cells; assay type: cell-based, human; conditions: 2.5 µM; Lys1; EVAIKIIDKTQLNPTSLQK
T6 construct: purchased ActivX Biosciences (KiNativ)
Method: as §1, §2

[2] = Protein Kinase Domain, ISMADVKFSFQCPGR

SMILES | Inhibition (IKKb; Lys1, WHNQETGEQIAIKQCR) [%] | Inhibition (IKKb; Lys2, DLKPENIVLQQGEQR) [%] | Inhibition (JAK1 domain1) [%] | Inhibition (ILK; Lys1, WQGNDIVVKVLK) [%] | Inhibition (ILK; [2]) [%] | activity loss in cells dependent on EGFR^C797S for growth ([1]; vs EGFR^L858R Ba/F3) [fold] | IC50 (H3255 cells) [nM] | Inhibition (TAO1, TAO3) [%] | Inhibition (ATR) [%] | Inhibition (CDK10) [%] | Inhibition (MARK3) [%] | activity loss in cells dependent on EGFR^C797S for growth [1] [fold]
C=CC(=O)Nc1cc(C(=O)Nc2nc3cccc(C)c3n2[C@@H]2CCCCN(C(=O)C=C)C2)cs1 [ZNL-0056] | 11.2 | 2.0 | -24.3 | -6.7 | -9.2 | 50 | 471 | -18.6 | 18.0 | 23.6 | 17.8 | 
C=CC(=O)Nc1cc(Nc2nccc(-c3cn(C)c4ccccc34)n2)c(OC)cc1N(C)CCN(C)C [Osimertinib, osimertinib, reference compound] | -16.0 | -28.9 | -25.4 | -18.1 | 14.1 |  | 27.8 | 6.6 | -16.2 | 40.2 | -26.0 | 300
